Target: α4β7 integrin (Homo sapiens (Human), UniProt P13612+P26010)
Experiment: MAdCAM-1/α4β7 integrin binding inhibitory activity evaluation test in the presence of serum (2)
Format: cell-based
Details: RPMI-8866 cells binding to mouse MAdCAM-1/Fc, same manner as Test (3), read-out: α4β7 Rank of activity with serum added
Procedure, shortened: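 Adhesion of human RPMI-8866 B cells (α4β7-expressing) to plate-bound recombinant mouse MAdCAM-1/Fc in DMEM binding buffer with 4 mM MnCl2 and 50% final human serum, 15–60 min at 30 °C. Bound cells quantified by LDH activity (A490) after lysis; IC50 relative to no-compound binding, duplicate.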

Chain of α4β7 integrin (P13612 34-1032): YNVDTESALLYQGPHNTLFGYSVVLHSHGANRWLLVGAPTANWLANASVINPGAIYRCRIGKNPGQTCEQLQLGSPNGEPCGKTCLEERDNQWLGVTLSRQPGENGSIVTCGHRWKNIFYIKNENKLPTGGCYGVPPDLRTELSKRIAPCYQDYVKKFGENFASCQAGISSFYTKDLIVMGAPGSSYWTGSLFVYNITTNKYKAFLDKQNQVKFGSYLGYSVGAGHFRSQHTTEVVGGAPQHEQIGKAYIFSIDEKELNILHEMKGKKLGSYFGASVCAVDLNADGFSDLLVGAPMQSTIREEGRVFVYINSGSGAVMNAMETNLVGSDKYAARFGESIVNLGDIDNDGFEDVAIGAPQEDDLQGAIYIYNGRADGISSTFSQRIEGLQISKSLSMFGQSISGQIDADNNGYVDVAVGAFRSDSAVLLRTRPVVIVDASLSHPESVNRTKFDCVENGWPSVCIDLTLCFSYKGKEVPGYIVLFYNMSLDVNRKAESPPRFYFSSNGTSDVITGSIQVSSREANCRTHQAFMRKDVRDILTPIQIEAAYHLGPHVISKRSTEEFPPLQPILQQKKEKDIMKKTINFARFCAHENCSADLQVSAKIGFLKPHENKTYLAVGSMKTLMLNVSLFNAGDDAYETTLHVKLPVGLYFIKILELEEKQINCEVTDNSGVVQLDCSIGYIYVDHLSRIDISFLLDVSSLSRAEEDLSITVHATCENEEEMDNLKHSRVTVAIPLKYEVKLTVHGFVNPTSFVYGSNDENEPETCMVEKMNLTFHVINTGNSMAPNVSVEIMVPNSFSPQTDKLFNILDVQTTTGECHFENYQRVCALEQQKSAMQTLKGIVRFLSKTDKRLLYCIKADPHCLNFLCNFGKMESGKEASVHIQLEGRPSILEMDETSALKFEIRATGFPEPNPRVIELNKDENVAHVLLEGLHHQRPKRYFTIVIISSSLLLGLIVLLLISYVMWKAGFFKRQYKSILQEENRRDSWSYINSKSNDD
Chain of α4β7 integrin (P26010 20-798): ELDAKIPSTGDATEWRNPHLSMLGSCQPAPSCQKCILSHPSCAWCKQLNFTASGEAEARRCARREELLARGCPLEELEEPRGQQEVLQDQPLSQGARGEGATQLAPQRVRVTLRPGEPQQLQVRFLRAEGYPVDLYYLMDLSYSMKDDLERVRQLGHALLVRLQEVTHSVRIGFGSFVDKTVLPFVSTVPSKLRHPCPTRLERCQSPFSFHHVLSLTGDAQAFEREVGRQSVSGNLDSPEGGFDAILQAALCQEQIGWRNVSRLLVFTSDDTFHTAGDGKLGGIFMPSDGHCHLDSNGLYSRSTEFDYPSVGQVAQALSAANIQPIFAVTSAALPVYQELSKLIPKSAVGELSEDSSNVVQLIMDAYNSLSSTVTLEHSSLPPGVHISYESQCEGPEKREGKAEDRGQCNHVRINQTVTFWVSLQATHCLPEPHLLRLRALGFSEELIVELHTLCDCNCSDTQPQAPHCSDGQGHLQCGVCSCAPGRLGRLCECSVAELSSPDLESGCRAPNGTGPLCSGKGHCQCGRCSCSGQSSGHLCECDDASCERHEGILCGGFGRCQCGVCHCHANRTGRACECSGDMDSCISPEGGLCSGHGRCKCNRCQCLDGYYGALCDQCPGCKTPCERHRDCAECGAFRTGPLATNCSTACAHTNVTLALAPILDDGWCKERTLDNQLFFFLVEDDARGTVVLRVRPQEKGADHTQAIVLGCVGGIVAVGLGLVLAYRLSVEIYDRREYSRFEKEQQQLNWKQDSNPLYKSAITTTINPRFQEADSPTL

Row | IC50 [nM] | Compound
1 | 10 to 50 | CC(=O)c1ccc(S(=O)(=O)Nc2cc(F)c(C(=O)N[C@@H](Cc3ccc(-n4c(=O)c5ccncc5n(C)c4=O)cn3)C(=O)O)cc2F)cc1 [Example 141, N-(4-{[(4-Acetylphenyl)sulfonyl]amine}-2,5-difluorobenzoyl)-3-[5-(1-methyl-2,4-dioxo-1,4-dihydropyrido[3,4-d]pyrimidin-3(2H)-yl)pyridin-2-yl]-L-alanine]
2 | 10 to 50 | Cn1c(=O)n(-c2ccc(C[C@H](NC(=O)c3ccc(NS(=O)(=O)c4ccccn4)cc3F)C(=O)O)nc2)c(=O)c2ccncc21 [Example 142, N-{2-Fluoro-4-[(pyridin-2-yl-sulfonyl)amino]benzoyl}-3-[5-(1-methyl-2,4-dioxo-1,4-dihydropyrido[3,4-d]pyrimidin-3(2H)-yl)pyridin-2-yl]-L-alanine]
3 | 50 to 200 | Cn1c(=O)n(-c2ccc(C[C@H](NC(=O)c3ccc(NS(=O)(=O)c4ccc5c(c4)C(=O)CC5)cc3F)C(=O)O)nc2)c(=O)c2ccncc21 [Example 144, N-(2-Fluoro-4-{[(3-oxo-2,3-dihydro-1H-inden-5-yl)sulfonyl]amino}benzoyl)-3-[5-(1-methyl-2,4-dioxo-1,4-dihydropyrido[3,4-d]pyrimidin-3(2H)-yl)pyridin-2-yl]-L-alanine]
4 | 50 to 200 | Cn1c(=O)n(-c2ccc(C[C@H](NC(=O)c3cc(F)c(NS(=O)(=O)c4ccc5c(c4)C(=O)OC5)cc3F)C(=O)O)nc2)c(=O)c2ccncc21 [Example 233, N-(2,5-Difluoro-4-{[(3-oxo-1,3-dihydro-2-benzofuran-5-yl)sulfonyl]amino}benzoyl)-3-[5-(1-methyl-2,4-dioxo-1,4-dihydropyrido[3,4-d]pyrimidin-3(2H)-yl)pyridin-2-yl]-L-alanine]
5 | 10 to 50 | Cn1c(=O)n(-c2ccc(C[C@H](NC(=O)c3ccc(NS(=O)(=O)c4ccc[nH]4)cc3F)C(=O)O)nc2)c(=O)c2ccncc21 [Example 182, N-{2-Fluoro-4-[(1H-pyrrol-2-yl-sulfonyl)amino]benzoyl}-3-[5-(1-methyl-2,4-dioxo-1,4-dihydropyrido[3,4-d]pyrimidin-3(2H)-yl)pyridin-2-yl]-L-alanine]

More lines, now with the values behind:

Row | Compound | IC50 [nM]
6 | Cn1c(=O)n(-c2ccc(C[C@H](NC(=O)c3cc(F)c(NS(=O)(=O)c4ccc(-n5cnnn5)cc4)cc3F)C(=O)O)nc2)c(=O)c2ccncc21 [Example 218, N-[2,5-Difluoro-4-({[4-(1H-tetrazol-1-yl)phenyl]sulfonyl}amino)benzoyl]-3-[5-(1-methyl-2,4-dioxo-1,4-dihydropyrido[3,4-d]pyrimidin-3(2H)-yl)pyridin-2-yl]-L-alanine] | 10 to 50
7 | Cn1ccc(=O)n(-c2ccc(C[C@H](NC(=O)c3c(F)cc(NS(=O)(=O)c4ccc(C(=O)NC(C)(C)C)nc4)cc3F)C(=O)O)cc2)c1=O [Example 173, N-{4-[({6-[(tert-Butylamino)carbonyl]pyridin-3-yl}sulfonyl)amino]-2,6-difluorobenzoyl}-4-(3-methyl-2,6-dioxo-3,6-dihydropyrimidin-1(2H)-yl)-L-phenylalanine] | ≤ 10
8 | COc1ccccc1S(=O)(=O)Nc1cc(F)c(C(=O)N[C@@H](Cc2ccc(-n3c(=O)c4ccncc4n(C)c3=O)cn2)C(=O)O)c(F)c1 [Example 145, N-(2,6-Difluoro-4-{[(2-methoxyphenyl)sulfonyl]amino}benzoyl)-3-[5-(1-methyl-2,4-dioxo-1,4-dihydropyrido[3,4-d]pyrimidin-3(2H)-yl)pyridin-2-yl]-L-alanine] | ≤ 10
9 | Cn1c(=O)n(-c2ccc(C[C@H](NC(=O)c3cc(F)c(NS(=O)(=O)c4ccccc4)cc3F)C(=O)O)nc2)c(=O)c2ccncc21 [Example 137, N-{2,5-Difluoro-4-[(phenylsulfonyl)amino]benzoyl}-3-[5-(1-methyl-2,4-dioxo-1,4-dihydropyrido[3,4-d]pyrimidin-3(2H)-yl)pyridin-2-yl]-L-alanine] | 50 to 200
10 | Cn1c(=O)n(-c2ccc(C[C@H](NC(=O)c3ncc(NS(=O)(=O)c4ccco4)cc3F)C(=O)O)cc2)c(=O)c2ccncc21 [Example 183, N-({3-Fluoro-5-[(2-furylsulfonyl)amino]pyridin-2-yl}carbonyl)-4-(1-methyl-2,4-dioxo-1,4-dihydropyrido[3,4-d]pyrimidin-3(2H)-yl)-L-phenylalanine] | 10 to 50
11 | Cn1c(=O)n(-c2ccc(C[C@H](NC(=O)c3cc(F)c(NS(=O)(=O)c4ccc(-n5cnnc5)cc4)cc3F)C(=O)O)nc2)c(=O)c2ccncc21 [Example 219, N-[2,5-Difluoro-4-({[4-(4H-1,2,4-triazol-4-yl)phenyl]sulfonyl}amino)benzoyl]-3-[5-(1-methyl-2,4-dioxo-1,4-dihydropyrido[3,4-d]pyrimidin-3(2H)-yl)pyridin-2-yl]-L-alanine] | 10 to 50
12 | CCNC(=O)c1ccc(S(=O)(=O)Nc2cc(F)c(C(=O)N[C@@H](Cc3ccc(-n4c(=O)cc(C(C)C)n(C)c4=O)cc3)C(=O)O)c(F)c2)cc1 [Example 156, N-{4-[({4-[(Ethylamino)carbonyl]phenyl}sulfonyl)amino]-2,6-difluorobenzoyl}-4-(4-isopropyl-3-methyl-2,6-dioxo-3,6-dihydropyrimidin-1(2H)-yl)-L-phenylalanine] | 10 to 50
13 | Cc1cc(CNC2CCCC2)ccc1S(=O)(=O)Nc1ccc(C(=O)N[C@@H](Cc2ccc(-n3c(=O)c4ccncc4n(C)c3=O)cc2)C(=O)O)c(F)c1 [Example 181, N-{4-[({4-[(Cyclopentylamino)methyl]-2-methylphenyl}sulfonyl)amino]-2-fluorobenzoyl}-4-(1-methyl-2,4-dioxo-1,4-dihydropyrido[3,4-d]pyrimidin-3(2H)-yl)-L-phenylalanine] | 10 to 50
14 | COc1cc2c(=O)n(-c3ccc(C[C@H](NC(=O)c4ccc(NS(=O)(=O)c5ccco5)cc4F)C(=O)O)cc3)c(=O)n(C)c2cn1 [Example 147, N-{2-Fluoro-4-[(2-furylsulfonyl)amino]benzoyl}-4-(6-methoxy-1-methyl-2,4-dioxo-1,4-dihydropyrido[3,4-d]pyrimidin-3(2H)-yl)-L-phenylalanine] | 10 to 50
15 | COc1ncc(-c2ccc(S(=O)(=O)Nc3cc(F)c(C(=O)N[C@@H](Cc4ccc(-n5c(=O)c6ccncc6n(C)c5=O)cn4)C(=O)O)cc3F)cc2)cn1 [Example 228, N-[2,5-Difluoro-4-({[4-(2-methoxypyrimidin-5-yl)phenyl]sulfonyl}amino)benzoyl]-3-[5-(1-methyl-2,4-dioxo-1,4-dihydropyrido[3,4-d]pyrimidin-3(2H)-yl)pyridin-2-yl]-L-alanine] | 50 to 200
16 | Cn1c(=O)n(-c2ccc(C[C@H](NC(=O)c3cc(F)c(NS(=O)(=O)c4ccc(-c5ncccn5)cn4)cc3F)C(=O)O)nc2)c(=O)c2ncccc21 [Example 230, N-(2,5-Difluoro-4-{[(5-pyrimidin-2-ylpyridin-2-yl)sulfonyl]amino}benzoyl)-3-[5-(1-methyl-2,4-dioxo-1,4-dihydropyrido[3,2-d]pyrimidin-3(2H)-yl)pyridin-2-yl]-L-alanine] | 50 to 200
17 | CNCc1ccc(S(=O)(=O)Nc2cc(F)c(C(=O)N[C@@H](Cc3ccc(-n4c(=O)ccn(C)c4=O)cc3)C(=O)O)c(F)c2)cc1 [Example 176, N-{2,6-Difluoro-4-[({4-[(methylamino)methyl]phenyl}sulfonyl)amino]benzoyl}-4-(3-methyl-2,6-dioxo-3,6-dihydropyrimidin-1(2H)-yl)-L-phenylalanine] | ≤ 10

Source: patent US9533985B2, “Sulfonamide derivative and medicinal use thereof” (EA Pharma Co., Ltd., priority 2012, dated 2017)
